Patent publication US7776312B2, “Method of treating Alzheimer's disease comprising administering deferoxamine (DFO) to the upper one-third of the nasal cavity” (HealthPartners Research Foundation, priority 2004, dated 2010)
Like-named read-outs stand apart in the source and are kept apart here.

Key:
[1] = test system: middle cerebral artery occlusion (MCAO); experiment: Pre-stroke intranasal DFO, 2-hour middle cerebral artery occlusion (MCAO), infarct volume by TTC staining; format: in vivo, rats; conditions: for total infarct volume: rats
[2] = test system: hypoxia-inducible factor-1α (HIF-1α); experiment: Western blot of brain proteins for HIF-1α after intranasal DFO; format: in vivo; conditions: rats, Western blot quantitation
Excerpt: Intranasal DFO reduced infarct volumes by 60% when expressed as either total infarct, cortical infarct, or striatal infarct volume. Brain proteins from olfactory bulb and from striatum were subjected to Western blot analysis for hypoxia-inducible factor-1α (HIF-1α). See FIG. 1 for a bar graph illustrating the results (10) for control animals (C) and pretreated animals (P). The results are shown broken into the cortex (12), striatum (14) and overall total (16) infarct volumes for control/pretreated animals. […] Here, the control animals' (C) total infarct volume is 175.93 mm^3 (18), while the pretreated animals' (P) total infarct volume is 70.57 mm^3 (20). Thus, a reduction of 60% in infarct volume is realized by way of this pretreatment regimen.
Additional brain samples from animals treated with intranasal DFO were generated, total RNA was isolated from olfactory bulb and striatum, and cDNA was generated using primers specific for HIF-1α.

[3] = test system: middle cerebral artery occlusion (MCAO); experiment: Intranasal DFO pretreatment, infarct volume and brain swelling 24 hours after MCAO; format: in vivo, rats; conditions: 3 doses of 60 μl 10% intranasal DFO 48 hours before MCAO
Method: Further, another experiment was conducted to further discover the mechanisms that may be manipulated in order to achieve the desired therapeutic results. Thus, rats were treated with 3 doses of 60 μl 10% intranasal deferoxamine (DFO), or water, at 3 hours intervals. The two groups of rats were either sacrificed or subjected to a 2-hour Middle Cerebral Artery Occlusion (MCAO) 48 hours later. Those rats undergoing the MCAO were sacrificed 24 hours after the MCAO.
In addition to the bioarray and PCR results, total infarct volume, cortical infarct volume and brain swelling were assessed for the rats pretreated with intranasal DFO with stroke and untreated rats with stroke 24 hours after MCAO.

[4] = humans, intravenous; cited from earlier work
[5] = test system: middle cerebral artery occlusion (MCAO); experiment: Post-stroke intranasal DFO at start of reperfusion after MCAO, infarct volume; format: in vivo, rats
Method: In this regard, let us now turn to FIG. 4. Here, the experimental method is as follows: The method is the same as described above in connection with FIG. 1, except that the subjects are not pretreated. […] Six doses of 10% DFO (6 mg DFO/dose) were administered in this manner; three doses of 10% DFO at 2-hour intervals on the day of surgery and the remaining three doses of 10% DFO at three-hour intervals on the day following surgery (40).

[6] = Intranasal delivery of DFO (59Fe-labeled ferrioxamine), tissue concentrations by scintillation counting; format: in vivo, rats; conditions: rat, 6 mg, intranasal ~6 mg, 25 min. after onset of delivery
Excerpt: Following delivery, tissues were removed for analysis.

[7] = cited from earlier work
[8] = one dose of 10% DFO intranasal pre-stroke, 5 days after MCAO
[9] = three doses of 3% DFO intranasal pre-stroke
[10] = three doses of 10% DFO intranasal pre-stroke, 5 days after MCAO

CC(=O)N(O)CCCCCNC(=O)CCC(=O)N(O)CCCCCNC(=O)CCC(=O)N(O)CCCCCN [DFO, deferoxamine]
overall infarct volume reduction [1, 8]: 26%
total infarct volume [1, 8]: 86.72 mm^3
total infarct volume [1, 9]: 101.83 mm^3
total infarct volume ([1]; three doses of 10% DFO (6 mg each) intranasal 48 hours before 2-hour MCAO, 5 days after MCAO): 70.57 mm^3
reduction of total infarct volume [1, 9]: 35%
reduction of cortical infarct volume [1, 10]: 60%
reduction of striatal infarct volume [1, 10]: 60%
reduction of total infarct volume ([1]; three doses of 10% DFO intranasal pre-stroke, 5 days after MCAO, vs distilled water controls): 60%
elevation of HIF-1α protein in olfactory bulb [2]: approximately 30 fold
elevation of HIF-1α protein in striatum [2]: ~20 fold
decrease in brain swelling [3]: 71%
decrease in cortical infarct volume [3]: 72%
decrease in total infarct volume ([3]; rats): 56%
plasma half-life [4]: less than 10 minutes
total infarct volume ([5]; rats, six doses of 10% DFO (6 mg/dose) intranasal post-stroke from start of reperfusion): 116 mm^3
reduction of total infarct volume ([5]; six doses of 10% DFO intranasal post-stroke): 55%
concentration at 25 min ([6]; olfactory epithelium, read-out: DFO concentration, Olfactory Epithelium): 12000 µM
concentration at 25 min ([6]; septal nucleus, read-out: DFO concentration, Septal Nucleus): 2.6 µM
concentration at 25 min ([6]; thalamus, read-out: DFO concentration, Thalamus): 1.1 µM
effect of intravenous bolus injection [7]: causes acute hypotension
